The IC50 is the concentration needed to halve the response being measured. A lower IC50 goes with inhibition by little substance. Usually ED50 stands for the dose at which the effect has come halfway, by size or by number of responders. Higher therefore signals weaker potency.

IC50 and ED50 data for six compounds are collected here from ChEMBL document CHEMBL1125459, “Synthesis and biological activity of 8a-phenyldecahydroquinolines as probes of PCP's binding conformation. A new PCP-like compound with increased in vivo potency” (J Med Chem, 1992).

Assay [1] can be described thus: Compound was evaluated for its affinity towards NMDA receptor in male Swiss Webster mice.
Assay [2] can be described thus: Compound was evaluated for its affinity towards N-methyl-D-aspartate glutamate receptor in male Swiss Webster mice.
For a further assay, the system named is Mus musculus. Nature of the assay: Compound was evaluated in vivo for effective dose by subcutaneous administration in mice using cGMP assay. In kind it is functional. As to conditions: sc.

Consider `c1ccc([C@@]23CCCC[C@@H]2CCCN3)cc1`, for which the 50% inhibitory concentration (IC50) in assay [1] is 0.159 µM.
In turn, `c1ccc([C@]23CCCC[C@H]2CCCN3)cc1` showed a 50% inhibitory concentration (IC50) in assay [2] of 0.467 µM.
Regarding `c1ccc([C@@]23CCCC[C@H]2CCCN3)cc1`, it took a dose of 0.16 mg/kg to reach the 50% effect level in the assay with Mus musculus (ED50). Moreover, in assay [2], half-maximal inhibition (IC50) was put at 0.0663 µM.
For the compound `c1ccc([C@]23CCCC[C@@H]2CCCN3)cc1`, in assay [1], half-maximal inhibition (IC50) required 0.0946 µM.
In the assay on Mus musculus, `C[C@]12N[C@H](Cc3ccccc31)c1ccccc12` [DIZOCILPINE] returned an ED50 of 0.3 mg/kg. This compound showed an IC50 in assay [2] of 0.0014 µM.
Turning to `c1ccc(C2(N3CCCCC3)CCCCC2)cc1` [PHENCYCLIDINE], the 50% inhibitory concentration (IC50) in assay [2] was 0.035 µM.
